{"source": "patent US9242959B2", "about": "“(Aza)benzhydryl ether derivatives, their process of preparation and their use as H4-receptor ligands for therapeutical applications” (BIOPROJET, priority 2012, dated 2016)", "key": {"human H4 receptor": {"molecular_target": "T1, human H4 receptor (Homo sapiens, UniProt Q9H3N8)", "T1 construct": "expressed in transfected cells", "T1 sequence (Q9H3N8 whole entry)": "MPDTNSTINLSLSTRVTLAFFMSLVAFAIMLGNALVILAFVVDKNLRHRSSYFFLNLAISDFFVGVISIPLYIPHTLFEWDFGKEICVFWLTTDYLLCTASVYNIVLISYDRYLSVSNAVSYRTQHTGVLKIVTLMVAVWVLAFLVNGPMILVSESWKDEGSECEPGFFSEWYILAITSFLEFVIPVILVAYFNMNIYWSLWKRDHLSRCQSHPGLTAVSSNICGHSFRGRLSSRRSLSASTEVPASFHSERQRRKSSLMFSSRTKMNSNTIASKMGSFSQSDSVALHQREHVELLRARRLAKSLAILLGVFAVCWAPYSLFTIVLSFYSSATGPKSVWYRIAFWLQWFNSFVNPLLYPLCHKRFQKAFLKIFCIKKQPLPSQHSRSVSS", "assay": "[3H]Histamine binding assay on membranes of CHO cells stably expressing human H4 receptor", "protocol": "CHO cells stably expressing human H4 receptor were grown until sub-confluence and centrifuged at 300 g 15 minutes at 4° C. Pellets were resuspended in buffer I Tris-HCl 50 mM, MgCl2 10 mM, NaCl 140 mM, pH=7.4 supplemented by a 1/50 dilution of a mix of protease inhibitors. The obtained suspension is stirred gently and submitted to a […] exerted through a syringe. The cell lysate is then centrifuged at 300 g 15 minutes at 4° C. in order to eliminate nucleus and cell scraps. The obtained supernatant was then centrifuged at 48000 g for 30 minutes at 4° C. The final pellet is resuspended in buffer I with a potter homogenizer. Aliquots were frozen in liquid nitrogen and stored until use at −80° C. Protein content is measured by the Bradford method.\nDefreezed membranes were diluted at a final concentration of 20 μg/180 μL/well in a binding buffer containing 50 mM Tris/HCl, 0.5 mM EDTA, pH=7.4 and distributed in 96 well polystyrene microplate. [^3H] […] Non specific binding was estimated in the presence of 10 μM BP1.2404 (JNJ 7777120). The reaction was terminated by filtration through GF/B filters pre-soaked 2 hours at 4° C. in 1% polyethyleneimine. Filters were rinsed 3 times with 250 μl of ice cold incubation binding buffer.\nThe filter-bound radioactivity was measured in a liquid scintillation counter Microbeta TRILUX® with 50 μl of scintillation fluid.\nThe hH4 binding investigated by use of [^3H]"}}, "note": "Structures can show the parent of a compound that is named as a salt.", "data": [{"smiles": "Cc1ccc(C(OC2CCN(C)CC2)c2ccc(Cl)cn2)c(O)c1.O=C(O)C(=O)O", "note": "(stereo not drawn) [Example 25, 2-[(5-Chloropyridin-2-yl)(1-methylpiperidin-4-yloxy)methyl]-5-methylphenol, oxalate]", "values": [{"measurement": "melting point", "result": 77, "unit": "°C"}, {"measurement": "Ki", "setting": "human H4 receptor", "result": "< 30", "unit": "nM"}]}, {"smiles": "CN1CCC(OC(c2ccc(F)cn2)c2ccc(F)cc2O)CC1.O=C(O)C(=O)O", "note": "(stereo not drawn) [Example 20, 5-Fluoro-2-[(5-fluoropyridin-2-yl)(1-methylpiperidin-4-yloxy)methyl]phenol, oxalate]", "values": [{"measurement": "melting point", "result": 105, "unit": "°C"}, {"measurement": "Ki", "setting": "human H4 receptor", "result": "< 300", "unit": "nM"}]}, {"smiles": "Cc1ccc(C(OC2CCN(C)CC2)c2ccc(F)cn2)c(O)c1F", "note": "(stereo not drawn) [Example 21, 2-Fluoro-6-[(5-fluoropyridin-2-yl)(1-methylpiperidin-4-yloxy)methyl]-3-methylphenol]", "values": [{"measurement": "melting point", "result": 62, "unit": "°C"}, {"measurement": "Ki", "setting": "human H4 receptor", "result": "< 300", "unit": "nM"}]}, {"smiles": "CN1CCC(OC(c2ccc(Cl)cn2)c2ccc(F)c(F)c2O)CC1", "note": "(stereo not drawn) [Example 16, 6-[(5-Chloropyridin-2-yl)(1-methylpiperidin-4-yloxy)methyl]-2,3-difluorophenol]", "values": [{"measurement": "melting point", "result": 68, "unit": "°C"}, {"measurement": "Ki", "setting": "human H4 receptor", "result": "< 300", "unit": "nM"}]}, {"smiles": "Cc1ccc(C(OC2CCN(C)CC2)c2cccc(I)c2)cc1.O=C(O)C(=O)O", "note": "(stereo not drawn) [Example 27, 4-[(3-Iodophenyl)-p-tolylmethoxy]-1-methylpiperidine, oxalate]", "values": [{"measurement": "melting point", "result": 60, "unit": "°C"}, {"measurement": "Ki", "setting": "human H4 receptor", "result": "< 1000", "unit": "nM"}]}, {"smiles": "Cc1ccc(C(OC2CCN(C)CC2)c2cc(F)ccn2)c(O)c1F", "note": "(stereo not drawn) [Example 26, 2-Fluoro-6-[(4-fluoropyridin-2-yl)(1-methylpiperidin-4-yloxy)methyl]-3-methylphenol]", "values": [{"measurement": "melting point", "result": 64, "unit": "°C"}, {"measurement": "Ki", "setting": "human H4 receptor", "result": "< 300", "unit": "nM"}]}, {"smiles": "Cc1ccc(C(OC2CCN(C)CC2)c2ccc(F)cn2)c(O)c1.O=C(O)C(=O)O", "note": "(stereo not drawn) [Example 24, 2-[(5-Fluoropyridin-2-yl)(1-methylpiperidin-4-yloxy)methyl]-5-methylphenol, oxalate]", "values": [{"measurement": "melting point", "result": 77, "unit": "°C"}, {"measurement": "Ki", "setting": "human H4 receptor", "result": "< 30", "unit": "nM"}]}, {"smiles": "CN1CCC(OC(c2ccccn2)c2ccccc2O)CC1", "note": "(stereo not drawn) (as salt: oxalate) [Example 19, 2-[(1-Methylpiperidin-4-yloxy)pyridin-2-ylmethyl]phenol, oxalate]", "values": [{"measurement": "melting point", "result": 70, "unit": "°C"}]}, {"smiles": "CN1CCC(OC(c2ccc(F)cn2)c2ccc(F)c(F)c2O)CC1", "note": "(stereo not drawn) [Example 15, 2,3-Difluoro-6-[(5-fluoropyridin-2-yl)(1-methylpiperidin-4-yloxy)methyl]phenol]", "values": [{"measurement": "melting point", "result": 73, "unit": "°C"}, {"measurement": "Ki", "setting": "human H4 receptor", "result": "< 1000", "unit": "nM"}]}, {"smiles": "Cc1ccc(C(OC2CCN(C)CC2)c2ccc(Cl)cn2)c(O)c1F", "note": "(stereo not drawn) [Example 22, 6-[(5-Chloropyridin-2-yl)(1-methylpiperidin-4-yloxy)methyl]-2-fluoro-3-methylphenol]", "values": [{"measurement": "melting point", "result": 67, "unit": "°C"}, {"measurement": "Ki", "setting": "human H4 receptor", "result": "< 30", "unit": "nM"}]}, {"smiles": "Cc1ccc(C(OC2CCN(C)CC2)c2ccccn2)c(F)c1.O=C(O)C(=O)O.O=C(O)C(=O)O", "note": "(stereo not drawn) [Example 3, 2-[(2-Fluoro-4-methylphenyl)(1-methylpiperidin-4-yloxy)methyl]pyridine, dioxalate]", "values": [{"measurement": "melting point", "result": 59, "unit": "°C"}, {"measurement": "Ki", "setting": "human H4 receptor", "result": "< 300", "unit": "nM"}]}, {"smiles": "CN1CCC(OC(c2cccc(I)c2)c2ccc(Cl)cn2)CC1.O=C(O)C(=O)O", "note": "(stereo not drawn) [Example 13, 5-Chloro-2-[(3-iodophenyl)(1-methylpiperidin-4-yloxy)methyl]pyridine, oxalate]", "values": [{"measurement": "melting point", "result": 130, "unit": "°C"}, {"measurement": "Ki", "setting": "human H4 receptor", "result": "< 300", "unit": "nM"}]}, {"smiles": "Cc1ccnc(C(OC2CCN(C)CC2)c2cc(OC(F)(F)F)ccc2F)c1.O=C(O)C(=O)O.O=C(O)C(=O)O", "note": "(stereo not drawn) [Example 8, 2-[(2-Fluoro-5-trifluoromethoxyphenyl)(1-methylpiperidin-4-yloxy)methyl]-4-methylpyridine, dioxalate]", "values": [{"measurement": "melting point", "result": 43, "unit": "°C"}, {"measurement": "Ki", "setting": "human H4 receptor", "result": "< 300", "unit": "nM"}]}, {"smiles": "CN1CCC(OC(c2cccc(I)c2)c2ccccn2)CC1", "note": "(stereo not drawn) [Example 37, 2-[(3-Iodophenyl)(1-methylpiperidin-4-yloxy)methyl]pyridine, oxalate]", "values": [{"measurement": "Ki", "setting": "human H4 receptor", "result": "< 1000", "unit": "nM"}]}, {"smiles": "CN1CCC(OC(c2ccccn2)c2ccccc2O)CC1", "note": "(stereo not drawn) [Example 19, 2-[(1-Methylpiperidin-4-yloxy)pyridin-2-ylmethyl]phenol, oxalate]", "values": [{"measurement": "Ki", "setting": "human H4 receptor", "result": "< 300", "unit": "nM"}]}]}
